What all share (type): biochemical
In one assay the target is T1, AKT3 (Homo sapiens, UniProt Q9Y243).
T1 construct: purchased SignalChem
Description: AKT Kinase Assay (IMAP fluorescent polarisation) vs AKT3. The essentials:
(§1)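 Phosphorylation of FAM-Crosstide detected by IMAP binding and fluorescence polarisation (485/528 nm), with IC50 fitted from % inhibition versus vehicle. Compound was incubated 45 min with enzyme, then reacted 1 h at room temperature with ATP and peptide in Tris/MgCl2/DTT buffer. Dose response had fourteen half-log points.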

Another assay addresses T2, AKT2 (Homo sapiens, UniProt P31751).
T2 construct: purchased SignalChem
Description: AKT Kinase Assay (IMAP fluorescent polarisation) vs AKT2. The essentials:
as §1

The target in the next assay is T3, AKT1 (Homo sapiens, UniProt P31749).
T3 construct: purchased SignalChem
T3 sequence (P31749 whole entry): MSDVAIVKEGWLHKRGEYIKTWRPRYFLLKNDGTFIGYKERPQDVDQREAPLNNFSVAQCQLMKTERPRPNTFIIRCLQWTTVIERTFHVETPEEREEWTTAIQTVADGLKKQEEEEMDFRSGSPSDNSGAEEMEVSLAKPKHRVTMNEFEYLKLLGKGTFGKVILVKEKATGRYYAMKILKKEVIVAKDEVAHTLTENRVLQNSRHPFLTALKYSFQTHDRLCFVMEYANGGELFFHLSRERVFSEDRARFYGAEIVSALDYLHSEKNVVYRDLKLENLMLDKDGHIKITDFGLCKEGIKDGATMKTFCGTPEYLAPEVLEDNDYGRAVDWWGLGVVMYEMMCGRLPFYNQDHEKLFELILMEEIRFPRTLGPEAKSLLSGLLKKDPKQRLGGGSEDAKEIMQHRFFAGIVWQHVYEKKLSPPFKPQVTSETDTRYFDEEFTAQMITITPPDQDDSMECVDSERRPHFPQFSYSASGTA
Description: AKT Kinase Assay (IMAP fluorescent polarisation) vs AKT1. The essentials: as §1

SMILES strings stand for the structures.

As a reminder, the IC50 is the concentration needed to halve the response being measured.

T1 sequence (Q9Y243 whole entry): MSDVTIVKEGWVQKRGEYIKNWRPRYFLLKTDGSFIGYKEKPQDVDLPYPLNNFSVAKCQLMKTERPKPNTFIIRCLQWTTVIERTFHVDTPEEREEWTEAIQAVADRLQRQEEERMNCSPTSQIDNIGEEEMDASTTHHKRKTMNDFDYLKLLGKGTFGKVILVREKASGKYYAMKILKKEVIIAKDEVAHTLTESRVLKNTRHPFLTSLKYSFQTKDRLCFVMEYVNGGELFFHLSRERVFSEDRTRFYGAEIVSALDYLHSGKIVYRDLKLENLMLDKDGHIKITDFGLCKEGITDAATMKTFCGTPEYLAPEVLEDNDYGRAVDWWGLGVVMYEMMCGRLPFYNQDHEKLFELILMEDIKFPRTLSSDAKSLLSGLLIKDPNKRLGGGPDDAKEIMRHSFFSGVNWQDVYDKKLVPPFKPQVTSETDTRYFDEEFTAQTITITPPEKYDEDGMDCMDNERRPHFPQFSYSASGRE
T2 sequence (P31751 whole entry): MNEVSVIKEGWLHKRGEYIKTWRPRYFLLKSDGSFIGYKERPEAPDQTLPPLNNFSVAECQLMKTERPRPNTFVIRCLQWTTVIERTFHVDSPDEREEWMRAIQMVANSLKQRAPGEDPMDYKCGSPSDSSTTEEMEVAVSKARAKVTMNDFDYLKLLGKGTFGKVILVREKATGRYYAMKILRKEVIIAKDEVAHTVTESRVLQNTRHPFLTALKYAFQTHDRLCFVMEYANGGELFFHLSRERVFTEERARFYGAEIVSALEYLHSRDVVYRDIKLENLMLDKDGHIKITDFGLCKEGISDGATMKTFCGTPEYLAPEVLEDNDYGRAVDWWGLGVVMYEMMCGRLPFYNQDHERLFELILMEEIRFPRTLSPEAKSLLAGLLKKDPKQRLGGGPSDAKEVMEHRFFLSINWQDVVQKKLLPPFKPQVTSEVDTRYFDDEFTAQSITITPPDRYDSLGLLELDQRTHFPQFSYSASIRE

Take `COCC1Oc2nc(-c3ccc(C4(N)CCC4)cc3)c(-c3ccccc3)cc2N(C)C1=O` (stereo not drawn) [Example 96, 6-(4-(1-aminocyclobutyl)phenyl)-3-(methoxymethyl)-1-methyl-7-phenyl-1H-pyrido[2,3-b][1,4]oxazin-2(3H)-one]: the IC50 on AKT3 was more than 10000 nM; at AKT2, 1000 to 10000 nM; on AKT1 it was 100 to 1000 nM.
As for `CN1C(=O)COc2nc(-c3ccc([C@]4(N)C[C@@H](O)C4)cc3)c(-c3ccccc3)cc21` [Example 97, 6-(4-((1s,3s)-1-amino-3-hydroxycyclobutyl)phenyl)-1-methyl-7-phenyl-1H-pyrido[2,3-b][1,4]oxazin-2(3H)-one], the IC50 at AKT3 lay within 1000 to 10000 nM; on AKT2, 1000 to 10000 nM; at AKT1 it was 100 to 1000 nM.
As to `NC1(c2ccc(-c3nc4c(cc3-c3ccccc3)-n3c(nnc3C(F)F)CO4)cc2)CCC1` [Example 98, 1-(4-(1-(difluoromethyl)-8-phenyl-4H-pyrido[2,3-b][1,2,4]triazolo[4,3-d][1,4]oxazin-7-yl)phenyl)cyclobutanamine], the IC50 on AKT3 was 100 to 1000 nM; on AKT2, 100 to 1000 nM; on AKT1, not above 100 nM.
As to `Cn1nc2n(c1=O)-c1cc(-c3ccccc3)c(-c3ccc(C4(N)CCC4)cc3)nc1OC2` [Example 99, 7-(4-(1-aminocyclobutyl)phenyl)-2-methyl-8-phenyl-2,4-dihydro-1H-pyrido[2,3-b][1,2,4]triazolo[4,3-d][1,4]oxazin-1-one], the values for the concentration for half-maximal inhibition (IC50) at AKT3, on AKT2 and at AKT1 were 1000 to 10000 nM, 100 to 1000 nM and 100 to 1000 nM, respectively.
For the compound `NC1(c2ccc(-c3nc4c(cc3-c3ccccc3)-n3c(nnc3C(F)(F)F)CO4)cc2)CCC1` [Example 100, 1-(4-(8-phenyl-1-(trifluoromethyl)-4H-pyrido[2,3-b][1,2,4]triazolo[4,3-d][1,4]oxazin-7-yl)phenyl)cyclobutanamine], the figures for the IC50 at AKT3, at AKT2 and on AKT1 were 1000 to 10000 nM, 1000 to 10000 nM and 100 to 1000 nM, respectively.
In the case of `N#CCn1nc2n(c1=O)-c1cc(-c3ccccc3)c(-c3ccc(C4(N)CCC4)cc3)nc1OC2` [Example 101, 2-(7-(4-(1-aminocyclobutyl)phenyl)-1-oxo-8-phenyl-1H-pyrido[2,3-b][1,2,4]triazolo[4,3-d][1,4]oxazin-2(4H)-yl)acetonitrile], the results for the IC50 on AKT3, on AKT2 and on AKT1 were 1000 to 10000 nM, 100 to 1000 nM and 100 to 1000 nM, respectively.
Turning to `CC(C)CN1C(=O)COc2nc(-c3ccc(C4(N)CCC4)cc3)c(-c3ccccc3)cc21` [Example 102, 6-(4-(1-aminocyclobutyl)phenyl)-1-isobutyl-7-phenyl-1H-pyrido[2,3-b][1,4]oxazin-2(3H)-one], the IC50 was 1000 to 10000 nM at AKT3, not above 100 nM on AKT2 and 100 to 1000 nM at AKT1.
The corresponding values for `NC1(c2ccc(-c3nc4c(cc3-c3ccccc3)-n3c(nn(CC(F)(F)F)c3=O)CO4)cc2)CCC1` [Example 103, 7-(4-(1-aminocyclobutyl)phenyl)-8-phenyl-2-(2,2,2-trifluoroethyl)-2,4-dihydro-1H-pyrido[2,3-b][1,2,4]triazolo[4,3-d][1,4]oxazin-1-one] are 1000 to 10000 nM, 100 to 1000 nM and 1000 to 10000 nM.
As for `NC1(c2ccc(-c3nc4c(cc3-c3ccccc3)NC(=O)CCN4)cc2)CCC1` [Example 104, 7-(4-(1-aminocyclobutyl)phenyl)-8-phenyl-4,5-dihydro-1H-pyrido[2,3-b][1,4]diazepin-2(3H)-one], the IC50 was more than 10000 nM at AKT3, 1000 to 10000 nM at AKT2 and 100 to 1000 nM at AKT1.
Turning to `CCCN1C(=O)COc2nc(-c3ccc(C4(N)CCC4)cc3)c(-c3ccccc3)cc21` [Example 105, 6-(4-(1-aminocyclobutyl)phenyl)-7-phenyl-1-propyl-1H-pyrido[2,3-b][1,4]oxazin-2(3H)-one], the IC50 on AKT3 is 1000 to 10000 nM; at AKT2, not above 100 nM; on AKT1 it was not above 100 nM.
For `CC(CO)(CO)CN1C(=O)COc2nc(-c3ccc(C4(N)CCC4)cc3)c(-c3ccccc3)cc21` [Example 106, 6-(4-(1-aminocyclobutyl)phenyl)-1-(3-hydroxy-2-(hydroxymethyl)-2-methylpropyl)-7-phenyl-1H-pyrido[2,3-b][1,4]oxazin-2(3H)-one], the IC50 was in the range of 1000 to 10000 nM on AKT3, 100 to 1000 nM at AKT2 and 100 to 1000 nM at AKT1.
Consider `NC1(c2ccc(-c3nc4c(cc3-c3ccccc3)-n3c(CO)nnc3CO4)cc2)CCC1` [Example 107], for which the IC50 was 1000 to 10000 nM on AKT3, 1000 to 10000 nM on AKT2 and not above 100 nM on AKT1.
Consider `CN1C(=O)NCc2nc(-c3ccc(C4(N)CCC4)cc3)c(-c3ccccc3)cc21` [Example 108, 6-(4-(1-aminocyclobutyl)phenyl)-1-methyl-7-phenyl-3,4-dihydropyrido[3,2-d]pyrimidin-2(1H)-one], for which the half-maximal inhibitory concentration (IC50) at AKT3 fell in the range of 1000 to 10000 nM; at AKT2 it was 100 to 1000 nM; at AKT1 it was 100 to 1000 nM.
For `NC1(c2ccc(-c3nc4c(cc3-c3ccccc3)N(CCF)C(=O)N(CCF)C4)cc2)CCC1` [Example 109, 6-(4-(1-aminocyclobutyl)phenyl)-1,3-bis(2-fluoroethyl)-7-phenyl-3,4-dihydropyrido[3,2-d]pyrimidin-2(1H)-one], the figures for the IC50 at AKT3, at AKT2 and at AKT1 were 100 to 1000 nM, not above 100 nM and not above 100 nM, respectively.
As to `NC1(c2ccc(-c3nc4c(cc3-c3ccccc3)-n3c(nnc3C3CC3)CO4)cc2)CCC1` [Example 110, 1-(4-(1-cyclopropyl-8-phenyl-4H-pyrido[2,3-b][1,2,4]triazolo[4,3-d][1,4]oxazin-7-yl)phenyl)cyclobutanamine], the IC50 on AKT3, at AKT2 and at AKT1 was 100 to 1000 nM in each case.
In the case of `CN1CCC(=O)N(C)c2cc(-c3ccccc3)c(-c3ccc(C4(N)CCC4)cc3)nc21` [Example 111, 7-(4-(1-aminocyclobutyl)phenyl)-1,5-dimethyl-8-phenyl-4,5-dihydro-1H-pyrido[2,3-b][1,4]diazepin-2(3H)-one], the results for the IC50 at AKT3, at AKT2 and at AKT1 were more than 10000 nM, 1000 to 10000 nM and 1000 to 10000 nM, respectively.
As for `CC(C)c1nnc2n1-c1cc(-c3ccccc3)c(-c3ccc(C4(N)CCC4)cc3)nc1OC2` [Example 112, 1-(4-(1-isopropyl-8-phenyl-4H-pyrido[2,3-b][1,2,4]triazolo[4,3-d][1,4]oxazin-7-yl)phenyl)cyclobutanamine], the IC50 at AKT3 lay in the range of 1000 to 10000 nM; on AKT2, 1000 to 10000 nM; on AKT1, 100 to 1000 nM.
`CN1C(=O)COc2nc(-c3ccc([C@]4(N)C[C@](C)(O)C4)cc3)c(-c3ccccc3)cc21` [Example 113, 6-(4-((1r,3r)-1-amino-3-hydroxy-3-methylcyclobutyl)phenyl)-1-methyl-7-phenyl-1H-pyrido[2,3-b][1,4]oxazin-2(3H)-one]: the values for the half-maximal inhibitory concentration (IC50) at AKT3, at AKT2 and on AKT1 were 1000 to 10000 nM, 100 to 1000 nM and not above 100 nM, respectively.
In the case of `CN1C(=O)CCNc2nc(-c3ccc(C4(N)CCC4)cc3)c(-c3ccccc3)cc21` [Example 114, 7-(4-(1-aminocyclobutyl)phenyl)-1-methyl-8-phenyl-4,5-dihydro-1H-pyrido[2,3-b][1,4]diazepin-2(3H)-one], the values for the half-inhibitory concentration (IC50) on AKT3, on AKT2 and at AKT1 were more than 10000 nM, 1000 to 10000 nM and 1000 to 10000 nM, respectively.
Consider `CC(C)Cc1nnc2n1-c1cc(-c3ccccc3)c(-c3ccc(C4(N)CCC4)cc3)nc1OC2` [Example 115, 1-(4-(1-isobutyl-8-phenyl-4H-pyrido[2,3-b][1,2,4]triazolo[4,3-d][1,4]oxazin-7-yl)phenyl)cyclobutanamine], for which the values for the IC50 at AKT3, at AKT2 and at AKT1 were 1000 to 10000 nM, 100 to 1000 nM and 100 to 1000 nM, respectively.
As for `CN(C)c1nnc2n1-c1cc(-c3ccccc3)c(-c3ccc(C4(N)CCC4)cc3)nc1OC2` [Example 116, 7-(4-(1-aminocyclobutyl)phenyl)-N,N-dimethyl-8-phenyl-4H-pyrido[2,3-b][1,2,4]triazolo[4,3-d][1,4]oxazin-1-amine], the IC50 on AKT3, on AKT2 and on AKT1 was 1000 to 10000 nM in each case.
As for `NC1(c2ccc(-c3nc4c(cc3-c3ccccc3)N(CCF)C(=O)CCN4)cc2)CCC1` [Example 117, 7-(4-(1-aminocyclobutyl)phenyl)-1-(2-fluoroethyl)-8-phenyl-4,5-dihydro-1H-pyrido[2,3-b][1,4]diazepin-2(3H)-one], the IC50 on AKT3, on AKT2 and on AKT1 was 1000 to 10000 nM each time.
Consider `NC1(c2ccc(-c3nc4c(cc3-c3ccccc3)-n3c(nnc3CC(F)(F)F)CO4)cc2)CCC1` [Example 118, 1-(4-(8-phenyl-1-(2,2,2-trifluoroethyl)-4H-pyrido[2,3-b][1,2,4]triazolo[4,3-d][1,4]oxazin-7-yl)phenyl)cyclobutanamine], for which the 50% inhibitory concentration (IC50) lay in the range of 1000 to 10000 nM at AKT3, 1000 to 10000 nM at AKT2 and 100 to 1000 nM at AKT1.
As to `NC(=O)c1nnc2n1-c1cc(-c3ccccc3)c(-c3ccc(C4(N)CCC4)cc3)nc1OC2` [Example 119, 7-(4-(1-aminocyclobutyl)phenyl)-8-phenyl-4H-pyrido[2,3-b][1,2,4]triazolo[4,3-d][1,4]oxazine-1-carboxamide], the 50% inhibitory concentration (IC50) on AKT3 fell in the range of 1000 to 10000 nM; on AKT2, 100 to 1000 nM; at AKT1, 100 to 1000 nM.
For the compound `NC1(c2ccc(-c3nc4c(cc3-c3ccccc3)-n3c(CF)nnc3CO4)cc2)CCC1` [Example 120, 1-(4-(1-(fluoromethyl)-8-phenyl-4H-pyrido[2,3-b][1,2,4]triazolo[4,3-d][1,4]oxazin-7-yl)phenyl)cyclobutanamine], the IC50 at AKT3 was 100 to 1000 nM; on AKT2, 100 to 1000 nM; at AKT1, not above 100 nM.
`COCCc1nnc2n1-c1cc(-c3ccccc3)c(-c3ccc(C4(N)CCC4)cc3)nc1OC2` [Example 121, 1-(4-(1-(2-methoxyethyl)-8-phenyl-4H-pyrido[2,3-b][1,2,4]triazolo[4,3-d][1,4]oxazin-7-yl)phenyl)cyclobutanamine]: the IC50 lay within 1000 to 10000 nM at AKT3, 1000 to 10000 nM on AKT2 and 100 to 1000 nM on AKT1.

The values above are taken from patent US9221838B2, “Inhibitors of AKT activity” (ALMAC DISCOVERY LIMITED, priority 2009, dated 2015).
